How the values were obtained:
143.6 sarcospheres = assay: Sarcosphere formation (cancer stem cells), 143.B; format: cell-based, human; conditions: 143.6 cells; treated at day 3 for 7 days; PTM 5 and 20 min, S3I-201 100 μM
Experimental: (§1) FIGS. 7A-7C. Synergic effect of the combined therapy on sarcosphere number reduction. The (A) MG-63 sarcospheres and (B) 143.6 sarcospheres formed were scored (size […]) and counted. Data represent the number of sarcospheres formed as mean and standard deviation of n=6 independent experiments (*p<0.01; **p<0.001; ****p<0.0001 one-way ANOVA). (C) Concentration of NO2- and H2O2 in micromolar concentration in PTM 5, 10 or 20 min.
(§2) Osteosarcoma cells MG-63 and 143.B were cultured in sarcosphere-forming conditions (Cancer Stem Cell (CSC) isolation standard method) for 3 days and then were incubated for another 7 days in contact with PTM according to the following parameters: Helium flow rate: 1 L/min; Gap between APPJ nozzle and CSC medium surface: 10 mm; Treatment times: between 5 and 20 minutes. The CSC Medium was DMEM/F-12 supplemented with GlutaMAX™ (1X; Gibco™, cat.no 10565018, Carlsbad, CA, USA), B-27 Supplement (1:50; Life Technologies), Heparin (1:1000; Sigma), human bEGF (20 ng/ml), human bFGF (10 ng/ml; GoldBio) and sodium pyruvate. The sarcospheres were treated at day 3 with PTM (5 and 20 min), with S3I-201 (100 μM) or with the combination of both for 7 days more.

osteosarcoma cell lines = conditions: in vitro, cited from earlier work
MG-63 sarcospheres = assay: Sarcosphere formation (cancer stem cells), MG-63; format: cell-based; conditions: treated at day 3 for 7 days, PTM 5 and 20 min, S3I-201 100 μM
Experimental: as §1, §2

[1] = tested on: human 143B osteosarcoma cells; assay: Murine orthotopic osteosarcoma model, tumor volume; format: in vivo; conditions: nude mice, tibia; daily para-tumoral 100 μL PTM—20 min; 5 mg/kg S3I-201 orally three times per week; versus control
Experimental: FIG. 8. […] Tumor volume of the different groups at final day (when tumors reach 1000 mm^3) . The one-way ANOVA was performed to determine the statistical significance between control and treated groups.
To investigate the role PTM in combination with S3I-201 in osteosarcoma disease development, we used a murine orthotopic osteosarcoma model in which human 143B osteosarcoma cells are injected into the tibia of immunodeficient mice. All in vivo tumor experiments were performed with female nude mice (NMRI-Foxn1 nu/nu mice from Janvier Labs). For orthotopic primary tumor growth, 50,000 cells were injected into the right tibia of 7 weeks old mice under isoflurane anaesthesia. Mice received a daily para-tumoral injection of 100 μL of PTM—20 min or 5 mg/kg S3I-201 (orally, dissolved in corn oil) three times per week, or a combination of both treatments. In parallel, control group received a daily para-tumoral injection of Ringer's Saline or 200 μL corn oil orally. Primary tumors were detected and quantified by bioluminescent in vivo imaging five days day after cell injection and subsequently once a week until the tumors reached the study endpoint (termination criterion: primary tumor total flux>[…] photons/s). […] The one-way ANOVA was performed to determine the statistical significance between control and treated groups.

[2] = Concentration of reactive species in plasma-treated hydrogel compositions; format: physicochemical; conditions: plasma treatment 180 seconds, concentration in the material
Source text: The RONS concentration is quantified either using the AR/HRP reagent method or the Griess reagent method for H2O2 and NOi, respectively. Also, plastic strips with test paper which allow quantification of H2O2 based on a redox reaction and NOi, also using the Griess reagent may be used when a hydrogel is used and the protein solution causes interferences with the AR/HRP reagent method or the Griess reagent method. These two methods give equivalent results.
A 50/50 blend of 0.5 weight % alginate and 2 weight % gelatin solutions were prepared (final concentration of 0.25% wt alginate and 1% wt gelatin). The mixture of alginate/gelatin was prepared is by vortexing in a ratio 1:1, 2% wt gelatin with 0.5% wt alginate for 2 minutes. Gelatin in powder is mixed with MilliQ water at 37° C. using magnetic stirring for 2 hours to obtain a 2% wt gelatin gel. 0.5% alginate was prepared by mixing alginate powder with MilliQ water using a SpeedMixer™ DAC 150.1 FVZ-K (SpeedMixer™, Germany) at 3500 r.p.m. for 15 min. The 0.25% wt alginate and 1% wt gelatin aqueous mixture was treated with an atmospheric pressure plasma jet kINPen IND® (Neoplas, Germany) operating with Argon to generate plasma. Treatment conditions: 1 Umin gas flow, 10 mm nozzle distance, and 180 seconds treatment. Treatment performed in 200 μL of mixture in a 96-well plate. […]

H2O2 [2]	NO2− [2]	Compound	number / growth of sarcospheres at day 10 (143.6 sarcospheres)	apoptosis (osteosarcoma cell lines; caspase-3 pathway)	cell growth and colony formation (osteosarcoma cell lines)	number / growth of sarcospheres at day 10 (MG-63 sarcospheres)	tumor volume at final day [1]
–	–	Cc1ccc(S(=O)(=O)OCC(=O)Nc2ccc(C(=O)O)c(O)c2)cc1 [S3I-201]	significantly reduced	apoptosis enhancement via the caspase-3 pathway	significant inhibition of cell growth and colony formation	significantly reduced	display a tumor volume in a similar way that control
10.3 mg/L	2.6 mg/L	Water	–	–	–	–	–

Source: patent publication US20230414546A1, “Combined Therapy Against Cancer” (UNIVERSITAT POLITÈCNICA DE CATALUNYA, priority 2020, published 2023)
